# Measured values published in patent US10435371B2, “Multifunctional aminoquinoline therapeutic agent” (LOHOCLA RESEARCH CORPORATION, priority 2014, dated 2019).
# What was measured:
# [1] = system: rats treated with Complete Freund's Adjuvant; experiment: Naltrindole reversal of the effect of DCUKA on CFA-induced neuropathic pain; assay type: in vivo, rat
# Protocol: Rats were tested for baseline mechanical pain threshold (von Frey test) and given an intraplantar injection of Complete Freunds Adjuvant (CFA) in the left hind paw.
# delta opiate receptor [2] = molecular target: T1, delta opiate receptor (Homo sapiens, UniProt P41143); experiment: cAMP accumulation, HeLa cells transfected with D1 receptor, DOR and AC5; assay type: cell-based; set-up: expressed in transfected cells; settings: not shown
# delta opiate receptor [3] = molecular target: T1, delta opiate receptor; experiment: cAMP accumulation, HEK293 cells transfected with DA receptor, delta opiate receptor and AC7; assay type: cell-based; set-up: expressed in transfected cells; host or cells: HEK293 (ATCC), calcium phosphate transient transfection; settings: naltrindole 10 μM
# cannabinoid CB1 receptor = molecular target: T2, cannabinoid CB1 receptor (Homo sapiens, UniProt P21554); experiment: cAMP accumulation, HeLa cells transfected with CB1 receptor, D1 receptor and AC7; assay type: cell-based; settings: for Effect on cAMP accumulation in the presence of dopamine: CB1 receptor, D1, AC7, DCUK-OEt 10 μM, ACEA 10 μM, FIG. 1
# T2 construct: expressed in transfected cells; host or cells: HeLa (ATCC), calcium phosphate transient transfection
# [4] = system: rats treated with cisplatin; experiment: Reversal of cisplatin-induced neuropathic pain (von Frey mechanical pain threshold); assay type: in vivo, rat; settings: cisplatin i.p. 7 mg/kg total, day 14; 30 mg/kg oral (equimolar to DCUKA and BCUKA); 1 and 2 hours; FIG. 6
# [5] = system: rats treated with streptozotocin; experiment: Combination with aspirin, STZ-induced neuropathic pain (von Frey); assay type: in vivo, rat; settings: aspirin 25 mg/kg, 60 min before test; FIG. 16
# Protocol: After administration of streptozotocin (STZ) as described in Example 5, rats were tested for allodynia using a von Frey apparatus. Sixty minutes prior to testing, rats were divided into four groups. Group 1 received vehicle; group 2 received DCUKA; group 3 received aspirin; and group 4 received a combination of DCUKA and aspirin.
# [6] = molecular target: GABA site, GABA-A Receptor; experiment: PDSP radioligand displacement, [^3H]Muscimol; set-up: species or system rat; settings: read-out: Binding constant Ki, GABA site, GABA-A Receptor
# [7] = molecular target: T3, GABA-A receptors (α1, β2, γ2s subunits) (UniProt P18508+P47870+P62813); experiment: Two-electrode voltage clamp, GABA-A receptors expressed in Xenopus oocytes; assay type: cell-based, rat α1 and γ2s, human β2; settings: for Efficacy among five DCUK derivatives: potentiation of GABA response, FIG. 4C
# T3 construct: expressed in transfected cells; host or cells: Xenopus laevis oocytes injected with capped cRNAs (α1:β2:γ2s 2:2:20 ng)
# Protocol: Xenopus laevis frogs were obtained from Nasco (Fort Atkinson, Wis., USA). The complementary DNAs encoding the GABAA subunits rat α1 and γ2s and human β2 were provided by Dr. M. H. Akabas and Dr. Paul Whiting, respectively. The in vitro transcription of α1, β2, and γ2s subunits was performed using mMessage mMachine® (Life Technologies, Grand Island, N.Y.). After isolation of Xenopus laevis oocytes, they were injected with capped complementary RNAs encoding α1, β2, and γ2s subunits in a ratio 2:2:20 ng. The injected oocytes were incubated at 15° C. in sterilized Barth's solution [MBS; composition: 88 mM NaCl, 1 mM KCl, 10 mM HEPES, 0.82 mM MgSO4, 2.4 mM NaHCO3, 0.91 mM CaCl2), and 0.33 mM Ca(NO3)2, pH 7.5] for 3-5 days before recording. All surgery was performed according to an approved institutional protocol. The responses of GABAARs expressed in oocytes were studied through two-electrode voltage clamp (Oocyte Clamp OC-725C, Warner Instruments, Hamden, Conn.), recording through a POWERLAB 4/30 system (ADInstruments, Colorado Springs, Colo.). The oocyte was placed in a chamber perfused with MBS, and voltage-clamped at −70 mV.
# [8] = system: rats treated with Complete Freund's Adjuvant; experiment: Combination with morphine, CFA-induced thermal hyperalgesia (radiant heat paw withdrawal test); assay type: in vivo, rat; settings: thermal hyperalgesia after CFA
# Protocol: Thermal Hypersensitivity Test (Radiant Heat Paw Withdrawal Test). Rats were placed in clear plastic chambers on a glass surface and were habituated for 15 minutes before testing. Thermal sensitivity was measured by using paw withdrawal latency to a radiant heat stimulus. A radiant heat source (i.e., infrared) was activated with a timer and focused onto the plantar surface of the left hind paw. A motion detector that halted both lamp and timer when the paw was withdrawn determined paw withdrawal latency. The latencies were measured before and after drug or vehicle administration. A maximum cutoff of 33 seconds was used to prevent tissue damage.
# [9] = system: alcohol-dependent male Wistar rats; experiment: Alcohol deprivation model of relapse drinking in alcohol-dependent rats; assay type: in vivo, rat; settings: for Relapse drinking (alcohol intake after deprivation): FIG. 17
# Protocol: This model is thoroughly described in a paper by (Spanagel and Holter, 1999). The model consists of a conditioning phase where individually housed male Wistar rats are allowed ad libitum access to food and 0, 5, 10 and 20% alcohol solutions in a four-bottle choice paradigm. The rats are weighed every 3rd and 4th day and food and fluid consumption is measured. The positions of bottles are changed once a week and after two months of continuous alcohol access, rats are deprived of alcohol for two weeks. After the deprivation phase, all alcohol solutions are presented again for 5 weeks and the procedure is repeated for ˜1 year. At this point an alcohol deprivation phase is instituted. Pre-deprivation (baseline) drinking is recorded for 3-4 days and then all alcohol is taken from the animals and they are only given water to drink for two weeks. Following alcohol deprivation, alcohol intake (total grams of ethanol/kg body weight) and water intake (ml/kg body weight) are measured daily. The alcohol preference ratio is calculated as (ethanol consumption [g/kg])/(water consumption [ml/kg]).
# For this experiment, animals were divided into groups of 6-8 rats such that the mean baseline total alcohol intake was approximately the same (˜2.8 g/kg/day) across all groups. Baseline drinking was monitored followed by 14 days of alcohol deprivation. Each animal then received i.p. injections of DCUK-OEt twice daily at 12 hour intervals starting at 7 PM prior to the reintroduction of ethanol for a total of 3 (20 mg/kg) or 5 injections (75 mg/kg). Acamprosate, an already marketed agent for reducing relapse, was used as a positive control and four doses of 50 mg/kg or 200 mg/kg were injected over a two-day period. Alcohol bottles were re-introduced after the first (acamprosate) or second (DCUK-OEt) injection.
# ethanol dependent rats = experiment: Operant responding for alcohol in ethanol vapor-exposed dependent rats; assay type: in vivo, rat; settings: FIG. 18
# Text: This example illustrates that ethanol dependent rats are motivated to work for ethanol reward during a period of forced abstinence and that DCUK-OEt reduces responding for the alcohol reward.
# The methods used in this study are extensively described in (Vendruscolo et al., 2012). The rats were first trained to self-administer ethanol in an operant chamber. The rats were given free-choice access to alcohol (10% w/v) and water for 1 day in their home cages to habituate them to the taste of alcohol. The rats were then subjected to an overnight session in the operant chambers with access to one lever that delivered water (FR1). Food was available ad libitum during this training. After 1 day off, the rats were subjected to a 2 hour session (FR1) for 1 day and a 1 hour session (FR1) the next day, with one lever delivering alcohol. All of the subsequent sessions lasted 30 minutes, and two levers were available (left lever: water; right lever: alcohol). Once trained, the rats were made dependent by chronic, intermittent exposure to alcohol vapors (Gilpin et al., 2008). They underwent cycles of 14 hours of ethanol exposure (blood alcohol levels during vapor exposure ranged between 150 and 250 mg %) and 10 hours in the absence of ethanol vapor, during which behavioral testing for acute withdrawal occurred (i.e., 6-8 hours after vapor was turned off, when brain and blood alcohol levels were negligible). Nondependent rats were those not exposed to alcohol vapor. Pharmacological testing occurred after at least 2 months of vapor exposure, when full dependence was observed. DCUKA-OEt was administered i.p. at the doses specified in FIG. 18, sixty minutes prior to placing the animal in the operant chamber. The vehicle for DCUK-OEt was injected in certain animals as a control.
# [10] = system: rats treated with Complete Freund's Adjuvant; experiment: Combination with morphine, CFA-induced pain, mechanical pain threshold; assay type: in vivo, rat; settings: FIG. 15 Panel A
# T2 sequence (P21554 whole entry): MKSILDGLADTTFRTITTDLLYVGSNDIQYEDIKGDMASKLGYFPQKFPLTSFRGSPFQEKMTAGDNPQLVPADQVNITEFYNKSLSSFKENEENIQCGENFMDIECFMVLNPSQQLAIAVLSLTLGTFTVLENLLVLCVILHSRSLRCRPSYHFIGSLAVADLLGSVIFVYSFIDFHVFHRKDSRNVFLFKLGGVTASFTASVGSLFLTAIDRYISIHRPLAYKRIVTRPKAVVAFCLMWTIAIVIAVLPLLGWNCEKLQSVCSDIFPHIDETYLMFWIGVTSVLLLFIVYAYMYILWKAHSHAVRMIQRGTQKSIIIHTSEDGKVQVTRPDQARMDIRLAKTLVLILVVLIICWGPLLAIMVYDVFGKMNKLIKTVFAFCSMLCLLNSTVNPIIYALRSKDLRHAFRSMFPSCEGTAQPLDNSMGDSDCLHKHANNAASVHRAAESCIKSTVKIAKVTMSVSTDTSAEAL
# T3 sequence (P62813 28-455): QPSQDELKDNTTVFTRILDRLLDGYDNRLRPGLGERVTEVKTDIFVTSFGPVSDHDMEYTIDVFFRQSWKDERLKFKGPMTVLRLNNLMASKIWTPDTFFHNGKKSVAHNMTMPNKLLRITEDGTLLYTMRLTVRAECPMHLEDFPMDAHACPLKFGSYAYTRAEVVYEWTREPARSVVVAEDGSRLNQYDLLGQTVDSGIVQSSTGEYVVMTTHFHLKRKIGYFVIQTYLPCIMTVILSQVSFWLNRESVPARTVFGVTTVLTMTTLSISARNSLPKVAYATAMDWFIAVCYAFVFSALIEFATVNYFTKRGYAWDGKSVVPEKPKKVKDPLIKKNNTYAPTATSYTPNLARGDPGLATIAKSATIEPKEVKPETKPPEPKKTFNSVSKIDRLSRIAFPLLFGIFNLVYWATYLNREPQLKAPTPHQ
# T3 sequence (P47870 26-474 isoform P47870-1 limits assumed): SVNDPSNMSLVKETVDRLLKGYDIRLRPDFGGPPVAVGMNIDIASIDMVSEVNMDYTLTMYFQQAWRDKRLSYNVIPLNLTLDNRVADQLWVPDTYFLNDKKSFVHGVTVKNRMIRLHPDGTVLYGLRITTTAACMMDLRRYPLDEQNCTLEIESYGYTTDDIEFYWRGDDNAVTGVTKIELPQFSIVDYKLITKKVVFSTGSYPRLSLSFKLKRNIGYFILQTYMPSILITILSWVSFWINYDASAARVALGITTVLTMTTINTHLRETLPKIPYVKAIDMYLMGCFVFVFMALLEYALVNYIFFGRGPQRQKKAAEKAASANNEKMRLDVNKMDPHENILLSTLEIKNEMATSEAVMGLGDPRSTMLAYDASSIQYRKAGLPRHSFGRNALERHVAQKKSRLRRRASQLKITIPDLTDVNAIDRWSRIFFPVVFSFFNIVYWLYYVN
# T3 sequence (P18508 39-466): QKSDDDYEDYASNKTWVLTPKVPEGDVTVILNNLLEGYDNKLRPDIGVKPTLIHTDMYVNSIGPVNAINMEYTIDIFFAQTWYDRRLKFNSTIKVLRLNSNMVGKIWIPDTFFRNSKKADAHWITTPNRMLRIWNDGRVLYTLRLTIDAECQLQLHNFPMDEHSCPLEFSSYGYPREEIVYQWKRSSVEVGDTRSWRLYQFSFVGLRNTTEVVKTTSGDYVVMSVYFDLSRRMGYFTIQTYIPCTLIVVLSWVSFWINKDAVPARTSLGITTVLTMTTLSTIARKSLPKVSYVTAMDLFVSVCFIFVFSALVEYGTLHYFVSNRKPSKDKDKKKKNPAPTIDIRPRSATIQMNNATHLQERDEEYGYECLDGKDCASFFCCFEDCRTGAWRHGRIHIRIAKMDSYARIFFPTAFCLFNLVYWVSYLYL
# T1 sequence (P41143 whole entry): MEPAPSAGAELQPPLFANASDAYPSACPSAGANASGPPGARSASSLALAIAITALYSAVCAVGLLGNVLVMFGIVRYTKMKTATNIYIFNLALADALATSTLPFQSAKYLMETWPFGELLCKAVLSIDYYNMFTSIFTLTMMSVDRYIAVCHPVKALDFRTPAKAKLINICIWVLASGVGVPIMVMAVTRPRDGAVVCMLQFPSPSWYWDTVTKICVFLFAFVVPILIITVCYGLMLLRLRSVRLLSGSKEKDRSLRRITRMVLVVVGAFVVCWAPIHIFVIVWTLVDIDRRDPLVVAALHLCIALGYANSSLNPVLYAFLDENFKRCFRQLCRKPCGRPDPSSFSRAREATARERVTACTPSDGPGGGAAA
compound,measurement,setting,value
"Oc1ccc2c3c1O[C@H]1c4[nH]c5ccccc5c4C[C@@]4(O)[C@@H](C2)N(CC2CC2)CC[C@]314 [Naltrindole, reference compound]",Effect of intraplantar naltrindole on the DCUKA effect,"[1]; Naltrindole 10 μg per paw s.c. 45 min after DCUKA 50 mg/kg oral, tested 15 min later",reversed the anti-allodynic effect of DCUKA
same,Effect of naltrindole alone on pain threshold,[1]; Naltrindole 10 μg per paw with vehicle,no effect on its own
same,Effect of DOR antagonist on the DCUKA inhibition of cAMP accumulation,delta opiate receptor [2],reversed
same,Effect of DOR antagonist on the BCUKA-induced cAMP increase,delta opiate receptor [3],reversed
"CCCCC/C=C\C/C=C\C/C=C\C/C=C\CCCC(=O)NCCCl [ACEA, reference compound]",Effect on cAMP accumulation in the presence of dopamine,cannabinoid CB1 receptor,increased the accumulation of cAMP
"NCC1(CC(=O)O)CCCCC1 [Gabapentin, gabapentin, reference compound]","Mechanical pain threshold, ratio to baseline",[4],did not significantly reverse
"CC(=O)Oc1ccccc1C(=O)O [aspirin, reference compound]","Effect on allodynia, alone",[5],do not have any significant effect on allodynia
CCOC(=O)c1cc(NC(=O)N(c2ccccc2)c2ccccc2)c2c(Cl)cc(Cl)cc2n1 [DCUK-OEt],Ki,[6],1700 ± 300 nM
same,Character of action at the CB1 cannabinoid receptor,"cannabinoid CB1 receptor; AC7, alone and together with ACEA",weak partial agonist
same,Effect on cAMP accumulation in the presence of dopamine,cannabinoid CB1 receptor,significant increase in cAMP accumulation
same,Character of action at the GABA-A receptor,[7]; FIG. 4A,positive allosteric modulators (PAM)
same,GABA-induced chloride currents,"[7]; co-applied with EC10 GABA, FIG. 4A",significantly enhanced GABA-induced currents
same,Efficacy among five DCUK derivatives,[7],most efficacious
same,"Chloride currents, compound alone","[7]; without GABA, FIG. 4A",no effect on chloride currents by themselves
same,Antihyperalgesic response,[8]; 6.4 mg of DCUK-OEt combined with 0.2 mg/kg morphine,40%
same,Relapse drinking (alcohol intake after deprivation),"[9]; 20 mg/kg i.p. twice daily, 3 injections","transient, but significant, reduction in relapse drinking"
same,Water consumption,"[9]; 75 mg/kg DCUK-OEt, data not shown",increased consumption of water
same,Relapse drinking (alcohol intake after deprivation),"[9]; 75 mg/kg i.p. twice daily, 5 injections",almost complete abolition of alcohol intake
same,Alcohol self-administration,"ethanol dependent rats; 20 mg/kg i.p., 60 min before session, ethanol vapor-exposed rats",brought the ethanol vapor exposed rats down to the same level of self-administration as non-ethanol pretreated control rats
same,Lever pressing for ethanol,"ethanol dependent rats; 35 and 50 mg/kg i.p., alcohol-dependent rats",reduced lever pressing for ethanol to even lower levels
same,Lever pressing for water,"ethanol dependent rats; all doses tested, alcohol dependent rats",No effect
"CN1CC[C@]23c4c5ccc(O)c4O[C@H]2[C@@H](O)C=C[C@H]3[C@H]1C5 [morphine, reference compound]","Analgesia, each agent alone at the dose used for the combination",[10],ineffective in producing analgesia
same,Antihyperalgesic response,[8]; morphine alone 0.2 mg/kg,~20%
"CC(=O)NCCCS(=O)(=O)O [acamprosate, reference compound]",Relapse drinking (alcohol intake after deprivation),"[9]; acamprosate 50 mg/kg, four doses over two days, positive control","transient, but significant, reduction in relapse drinking"
"CCCC(=O)c1cc(NC(=O)N(c2ccccc2)c2ccccc2)c2c(Cl)cc(Cl)cc2n1 [DCUK-butanone, 3-(2-Butyryl-5,7-dichloroquinolin-4-yl)-1,1-diphenylurea]",Efficacy among five DCUK derivatives,[7],most efficacious
